# In patent US12285407B2, “Bis-indolylmethane derivatives and uses thereof” (The University of The West Indies, priority 2018, dated 2025):
# Like-named read-outs stand apart in the source and are kept apart here.
# How the values were obtained:
# Escherichia coli O157:H7 = assay: Rescue concentrations of SP-BIM that reactivate antibiotic; assay type: cell-based; settings: Escherichia coli
# Klebsiella pneumoniae [1] = assay: Checkerboard synergy (FICI) of antibiotics with SP-BIM; assay type: cell-based; settings: for MIC: 24 h, antibiotic alone, read-out: MIC antibiotic only
# Escherichia coli [2] = assay: microbe, parasite or virus in culture; assay type: cell-based; settings: read-out: MIC of antibiotic, No compound
# Bacillus cereus = assay: Checkerboard synergy (FICI) of antibiotics with SP-BIM; assay type: cell-based; settings: for MIC: 24 h, antibiotic alone, read-out: MIC antibiotic only
# Candida albicans = assay: as above; design: MIC SP-BIM 13 only / MIC in combination: Antibiotic / MIC antibiotic only: unit not given beside the values
# Klebsiella pneumoniae [3] = assay: Adjuvant broth microdilution (antibiotic MIC with SP-BIM at 50 μg/mL); assay type: cell-based; settings: Klebsiella pneumoniae; antibiotic alone; Table 7; read-out: MIC of antibiotic, No compound
# Staphylococcus aureus = assay: Checkerboard synergy (FICI) of antibiotics with SP-BIM; assay type: cell-based; settings: Staphylococcus aureus, Staphylococcus aureus; for MIC: 24 h, antibiotic alone, read-out: MIC antibiotic only
# Escherichia coli [4] = assay: as above; design: MIC SP-BIM 13 only / MIC in combination: Antibiotic: unit not given beside the values; settings: for MIC: 24 h
# MRSA = assay: Adjuvant broth microdilution (antibiotic MIC with SP-BIM at 50 μg/mL); assay type: cell-based, Staphylococcus aureus; settings: Staphylococcus aureus, antibiotic alone, Table 4, read-out: MIC of antibiotic, No compound
# Enterococcus faecium = assay: Checkerboard synergy (FICI) of antibiotics with SP-BIM; assay type: cell-based; settings: Enterococcus faecium, Enterococcus faecium; for MIC: 24 h, antibiotic alone, read-out: MIC antibiotic only
# Streptococcus pneumoniae = assay: as above; assay type: cell-based; settings: for MIC: 24 h, antibiotic alone, read-out: MIC antibiotic only
# [5] = SP-BIM 9 in combination with the labelled antibiotic
# [6] = SP-BIM 13 in combination with the labelled antibiotic
# [7] = antibiotic in combination with SP-BIM 9
# [8] = antibiotic in combination with SP-BIM 13
# [9] = MIC of the antibiotic in combination with SP-BIM 13
# [10] = Streptococcus pneumonia (title: Streptococcus pyogenes), antibiotic + SP-BIM 9
# [11] = Streptococcus pneumoniae, antibiotic + SP-BIM 13
structure (smiles),measurement,setting,value
"Oc1ccc2[nH]cc(C(c3cc(O)c(O)c(O)c3)c3c[nH]c4ccc(O)cc34)c2c1 [SP-BIM 27, 5-(bis(5-hydroxy-1H-indol-3-yl)methyl)benzene-1,2,3-triol]",MIC,Escherichia coli O157:H7; read-out: MIC of SP-BIM 27,> 250 µg/mL
"Oc1ccc2[nH]cc(C(c3cccc(Br)c3)c3c[nH]c4ccc(O)cc34)c2c1 [SP-BIM 28, 3,3′-((3-bromophenyl)methylene)bis(1H-indol-5-ol)]",MIC,Escherichia coli O157:H7; read-out: MIC SP-BIM 28,250 µg/mL
"COc1cc(Cc2cnc(N)nc2N)cc(OC)c1OC [Trimethoprim, trimethoprim]",MIC,Klebsiella pneumoniae [1]; SP-BIM 9 checkerboard,8 µg/mL
same,MIC,Klebsiella pneumoniae [1]; SP-BIM 13 checkerboard,8 µg/mL
same,FIC of SP-BIM 9,Klebsiella pneumoniae [1]; [5],0.5
same,FIC of SP-BIM 13,Klebsiella pneumoniae [1]; [6],1.0
same,Interpretation,Klebsiella pneumoniae [1]; antibiotic + SP-BIM 9,Indifferent (Indifferent: FICI>1.0-4.0)
same,Σ FIC,Klebsiella pneumoniae [1]; antibiotic + SP-BIM 9,<1.5
same,Interpretation,Klebsiella pneumoniae [1]; antibiotic + SP-BIM 13,Indifferent (Indifferent: FICI>1.0-4.0)
same,Σ FIC,Klebsiella pneumoniae [1]; antibiotic + SP-BIM 13,<3.0
same,"MIC in combination, Antibiotic",Klebsiella pneumoniae [1]; [7],8 µg/mL
same,"MIC in combination, Antibiotic",Klebsiella pneumoniae [1]; [8],16 µg/mL
same,FIC of antibiotic,Klebsiella pneumoniae [1]; in combination with SP-BIM 9,1
same,FIC of antibiotic,Klebsiella pneumoniae [1]; in combination with SP-BIM 13,2.0
same,MIC,Escherichia coli [2],2 µg/mL
same,MIC,Bacillus cereus; SP-BIM 9 checkerboard,> 250 µg/mL
same,MIC,Bacillus cereus; SP-BIM 13 checkerboard,250 µg/mL
same,"MIC in combination, SP-BIM 9",Bacillus cereus; SP-BIM 9 concentration in combination with the labelled antibiotic,16 µg/mL
same,FIC of SP-BIM 9,Bacillus cereus; [5],0.064
same,FIC of SP-BIM 13,Bacillus cereus; [6],1.0
same,Interpretation,Bacillus cereus; antibiotic + SP-BIM 9,Synergy (Synergy: FICI≤0.5)
same,Σ FIC,Bacillus cereus; antibiotic + SP-BIM 9,<0.1
same,Interpretation,Bacillus cereus; antibiotic + SP-BIM 13,Indifferent (Indifferent: FICI>1.0-4.0)
same,Σ FIC,Bacillus cereus; antibiotic + SP-BIM 13,2.0
same,"MIC in combination, Antibiotic",Bacillus cereus; [7],2 µg/mL
same,"MIC in combination, Antibiotic",Bacillus cereus; [8],250 µg/mL
same,FIC of antibiotic,Bacillus cereus; in combination with SP-BIM 9,0.008
same,FIC of antibiotic,Bacillus cereus; in combination with SP-BIM 13,1.00
same,MIC,"Candida albicans; 24 h, read-out: MIC antibiotic only",> 250 µg/mL
same,MIC in combination: Antibiotic,Candida albicans; [9],250
same,FIC of SP-BIM 13,Candida albicans; [6],1.0
same,Interpretation,Candida albicans; antibiotic + SP-BIM 13,Indifferent (Indifferent: FICI>1.0-4.0)
same,Σ FIC,Candida albicans; antibiotic + SP-BIM 13,<2.0
same,FIC of antibiotic,Candida albicans; combination with SP-BIM 13,1.0
same,MIC,Klebsiella pneumoniae [3],16 µg/mL
same,MIC,Staphylococcus aureus; SP-BIM 9 checkerboard,1 µg/mL
same,MIC,Staphylococcus aureus; SP-BIM 13 checkerboard,1 µg/mL
same,FIC of SP-BIM 9,Staphylococcus aureus; [5],0.02
same,FIC of SP-BIM 13,Staphylococcus aureus; [6],0.5
same,Interpretation,Staphylococcus aureus; antibiotic + SP-BIM 9,Indifferent (Indifferent: FICI>1.0-4.0)
same,Σ FIC,Staphylococcus aureus; antibiotic + SP-BIM 9,<2.02
same,Interpretation,Staphylococcus aureus; antibiotic + SP-BIM 13,Antagonistic (Antagonistic: FICI≥4.0)
same,Σ FIC,Staphylococcus aureus; antibiotic + SP-BIM 13,4.5
same,"MIC in combination, Antibiotic",Staphylococcus aureus; [7],2.0 µg/mL
same,"MIC in combination, Antibiotic",Staphylococcus aureus; [8],4 µg/mL
same,FIC of antibiotic,Staphylococcus aureus; in combination with SP-BIM 9,2.00
same,FIC of antibiotic,Staphylococcus aureus; in combination with SP-BIM 13,4.0
same,MIC,"Escherichia coli [4]; read-out: MIC antibiotic only, Escherichia coli, antibiotic alone",2 µg/mL
same,MIC,"Escherichia coli [4]; read-out: MIC antibiotic only, Escherichia coli, antibiotic alone, SP-BIM 9 checkerboard",2 µg/mL
same,MIC in combination: Antibiotic,Escherichia coli [4]; [9],8
same,FIC of SP-BIM 9,Escherichia coli [4]; [5],0.128
same,FIC of SP-BIM 13,Escherichia coli [4]; [6],1.0
same,Interpretation,Escherichia coli [4]; antibiotic + SP-BIM 9,Antagonistic (Antagonistic: FICI≥4.0)
same,Σ FIC,Escherichia coli [4]; antibiotic + SP-BIM 9,<4.1
same,Interpretation,Escherichia coli [4]; antibiotic + SP-BIM 13,Antagonistic (Antagonistic: FICI≥4.0)
same,Σ FIC,Escherichia coli [4]; antibiotic + SP-BIM 13,<5.0
same,"MIC in combination, Antibiotic",Escherichia coli [4]; [7],8 µg/mL
same,FIC of antibiotic,Escherichia coli [4]; combination with SP-BIM 13,4.0
same,FIC of antibiotic,Escherichia coli [4]; in combination with SP-BIM 9,4
same,MIC,MRSA,250 µg/mL
same,MIC,Enterococcus faecium; SP-BIM 9 checkerboard,4 µg/mL
same,MIC,Enterococcus faecium; SP-BIM 13 checkerboard,4 µg/mL
same,FIC of SP-BIM 13,Enterococcus faecium; [6],1.0
same,Interpretation,Enterococcus faecium; antibiotic + SP-BIM 13,Antagonistic (Antagonistic: FICI≥4.0)
same,Σ FIC,Enterococcus faecium; antibiotic + SP-BIM 13,5.0
same,"MIC in combination, Antibiotic",Enterococcus faecium; [8],16 µg/mL
same,FIC of antibiotic,Enterococcus faecium; in combination with SP-BIM 13,4.0
same,FIC of SP-BIM 9,"Streptococcus pneumoniae; Streptococcus pneumonia (title: Streptococcus pyogenes), SP-BIM 9 in combination with the labelled antibiotic",0.06
same,Interpretation,Streptococcus pneumoniae; [10],Synergy (Synergy: FICI≤0.5)
same,Σ FIC,Streptococcus pneumoniae; [10],<0.31
same,"MIC in combination, Antibiotic","Streptococcus pneumoniae; Streptococcus pneumonia (title: Streptococcus pyogenes), antibiotic in combination with SP-BIM 9",8 µg/mL
same,FIC of antibiotic,"Streptococcus pneumoniae; Streptococcus pneumonia (title: Streptococcus pyogenes), in combination with SP-BIM 9",0.25
same,MIC,"Streptococcus pneumoniae; Streptococcus pneumoniae, Streptococcus pneumonia (title: Streptococcus pyogenes), SP-BIM 9 checkerboard",32 µg/mL
same,MIC,"Streptococcus pneumoniae; Streptococcus pneumoniae, Streptococcus pneumoniae, SP-BIM 13 checkerboard",32 µg/mL
same,FIC of SP-BIM 13,"Streptococcus pneumoniae; Streptococcus pneumoniae, SP-BIM 13 in combination with the labelled antibiotic",1.0
same,Interpretation,Streptococcus pneumoniae; [11],Antagonistic (Antagonistic: FICI≥4.0)
same,Σ FIC,Streptococcus pneumoniae; [11],<4.9
same,"MIC in combination, Antibiotic","Streptococcus pneumoniae; Streptococcus pneumoniae, antibiotic in combination with SP-BIM 13",125 µg/mL
same,FIC of antibiotic,"Streptococcus pneumoniae; Streptococcus pneumoniae, in combination with SP-BIM 13",3.9
